{"source": "ChEMBL document CHEMBL5244269", "about": "“Improving metabolic stability and removing aldehyde oxidase liability in a 5-azaquinazoline series of IRAK4 inhibitors” (Bioorg Med Chem, 2020)", "key": {"[1]": {"experiment": "Plasma protein binding in mouse assessed as free fraction by equilibrium dialysis analysis", "assay_type": "ADME, cell-free"}, "[2]": {"experiment": "Plasma protein binding in monkey assessed as free fraction by equilibrium dialysis analysis", "assay_type": "ADME, cell-free, Macaca mulatta", "conditions": "rhesus monkey"}, "[3]": {"biological_target": "T1, Phosphatidylinositol 4,5-bisphosphate 3-kinase catalytic subunit delta isoform (Homo sapiens) (UniProt O00329)", "T1 sequence (whole entry)": "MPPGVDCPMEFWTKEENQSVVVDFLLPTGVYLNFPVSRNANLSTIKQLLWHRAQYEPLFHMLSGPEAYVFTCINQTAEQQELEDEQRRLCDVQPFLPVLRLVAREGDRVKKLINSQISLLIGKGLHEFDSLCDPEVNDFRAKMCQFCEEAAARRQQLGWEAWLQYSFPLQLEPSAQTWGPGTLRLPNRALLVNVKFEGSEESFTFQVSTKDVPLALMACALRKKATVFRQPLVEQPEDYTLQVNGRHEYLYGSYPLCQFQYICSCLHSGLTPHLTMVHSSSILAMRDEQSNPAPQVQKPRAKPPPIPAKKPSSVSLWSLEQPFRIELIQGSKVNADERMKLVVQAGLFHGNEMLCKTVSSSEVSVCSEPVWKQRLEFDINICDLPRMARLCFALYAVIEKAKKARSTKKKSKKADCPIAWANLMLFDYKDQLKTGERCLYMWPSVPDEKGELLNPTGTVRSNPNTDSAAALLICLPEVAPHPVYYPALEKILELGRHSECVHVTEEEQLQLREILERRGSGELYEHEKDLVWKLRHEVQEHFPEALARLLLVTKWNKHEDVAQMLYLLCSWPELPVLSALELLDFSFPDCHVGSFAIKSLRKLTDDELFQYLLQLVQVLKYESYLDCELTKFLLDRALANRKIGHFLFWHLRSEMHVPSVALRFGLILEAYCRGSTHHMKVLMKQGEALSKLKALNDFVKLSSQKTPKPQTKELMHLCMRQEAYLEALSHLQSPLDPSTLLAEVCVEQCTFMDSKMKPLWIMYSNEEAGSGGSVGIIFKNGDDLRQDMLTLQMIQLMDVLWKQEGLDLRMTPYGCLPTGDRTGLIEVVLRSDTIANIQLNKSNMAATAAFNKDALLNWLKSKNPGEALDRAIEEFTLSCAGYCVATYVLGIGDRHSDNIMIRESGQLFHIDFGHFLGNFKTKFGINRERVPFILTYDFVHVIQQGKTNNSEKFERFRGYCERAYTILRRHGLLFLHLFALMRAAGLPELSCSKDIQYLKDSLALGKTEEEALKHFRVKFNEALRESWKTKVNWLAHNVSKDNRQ", "experiment": "Inhibition of PI3Kdelta (unknown origin) at 0.1 uM relative to control"}, "[4]": {"experiment": "Metabolic stability in dog liver microsomes assessed as intrinsic clearance", "assay_type": "ADME, Canis lupus familiaris, Microsome", "conditions": "read-out: CLH"}, "[5]": {"experiment": "Metabolic stability in mouse hepatocytes assessed as intrinsic clearance measured per 10^6 cells", "assay_type": "ADME, cell-based, Hepatocyte", "conditions": "read-out: CLH"}, "[6]": {"experiment": "Oral bioavailability in Han Wistar rat at 2 mg/kg", "assay_type": "ADME, organism-based", "conditions": "in vivo"}, "[7]": {"experiment": "Plasma protein binding in human assessed as free fraction by equilibrium dialysis analysis", "assay_type": "ADME, cell-free"}, "[8]": {"experiment": "Metabolic stability in minipig hepatocytes assessed as intrinsic clearance measured per 10^6 cells", "assay_type": "ADME, cell-based, Sus scrofa domesticus, Hepatocyte", "conditions": "pig, read-out: CLH"}, "[9]": {"experiment": "Metabolic stability in minipig liver microsomes assessed as intrinsic clearance", "assay_type": "ADME, Sus scrofa domesticus, Microsome", "conditions": "pig, read-out: CLH"}, "[10]": {"experiment": "Terminal half life in cynomolgus monkey at 1 mg/kg, iv", "assay_type": "ADME, organism-based, Macaca fascicularis", "conditions": "in vivo, read-out: beta t1/2 (converted)"}, "[11]": {"experiment": "Metabolic stability in human liver microsomes assessed as half life", "assay_type": "ADME, Microsome"}, "[12]": {"experiment": "Volume of distribution at steady state in cynomolgus monkey at 1 mg/kg, iv", "assay_type": "ADME, organism-based, Macaca fascicularis", "conditions": "in vivo, read-out: Vdss"}, "[13]": {"experiment": "Volume of distribution at steady state in CD1 mouse at 1 mg/kg, po or 0.5 mg/kg, iv", "assay_type": "ADME, organism-based", "conditions": "in vivo"}, "[14]": {"experiment": "Clearance in cynomolgus monkey at 1 mg/kg, iv", "assay_type": "ADME, organism-based, Macaca fascicularis", "conditions": "in vivo"}, "[15]": {"experiment": "Metabolic stability in mouse liver microsomes assessed as intrinsic clearance", "assay_type": "ADME, Microsome", "conditions": "read-out: CLH"}, "[16]": {"experiment": "Metabolic stability in rat hepatocytes assessed as intrinsic clearance measured per 10^6 cells", "assay_type": "ADME, cell-based, Hepatocyte", "conditions": "read-out: CLH"}, "[17]": {"experiment": "Metabolic stability in monkey liver microsomes assessed as intrinsic clearance", "assay_type": "ADME, Macaca mulatta, Microsome", "conditions": "rhesus monkey, read-out: CLH"}, "[18]": {"experiment": "Oral bioavailability in CD1 mouse at 1 mg/kg", "assay_type": "ADME, organism-based", "conditions": "in vivo"}, "[19]": {"biological_target": "T2, Interleukin-1 receptor-associated kinase 4 (Homo sapiens) (UniProt Q9NWZ3)", "T2 sequence (whole entry)": "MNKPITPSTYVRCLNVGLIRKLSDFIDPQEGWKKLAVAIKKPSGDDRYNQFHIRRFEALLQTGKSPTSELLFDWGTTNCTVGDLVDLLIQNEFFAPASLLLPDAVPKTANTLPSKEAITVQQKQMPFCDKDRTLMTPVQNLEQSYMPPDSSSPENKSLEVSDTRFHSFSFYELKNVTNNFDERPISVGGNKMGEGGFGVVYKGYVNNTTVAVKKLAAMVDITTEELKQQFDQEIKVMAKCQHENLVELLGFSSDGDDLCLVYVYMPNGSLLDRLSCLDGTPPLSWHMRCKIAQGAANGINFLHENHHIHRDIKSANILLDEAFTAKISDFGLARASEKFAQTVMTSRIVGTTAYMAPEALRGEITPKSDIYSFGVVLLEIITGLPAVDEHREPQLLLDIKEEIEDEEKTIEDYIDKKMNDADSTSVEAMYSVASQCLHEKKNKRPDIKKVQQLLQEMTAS", "experiment": "Inhibition of IRAK4 (unknown origin) at 0.1 uM relative to control"}, "[20]": {"experiment": "Volume of distribution at steady state in Han Wistar rat at 2 mg/kg, po or 1 mg/kg, iv", "assay_type": "ADME, organism-based", "conditions": "in vivo"}, "[21]": {"experiment": "Metabolic stability in monkey hepatocytes assessed as intrinsic clearance measured per 10^6 cells", "assay_type": "ADME, cell-based, Macaca mulatta, Hepatocyte", "conditions": "rhesus monkey, read-out: CLH"}, "OCI-Ly10 [22]": {"system": "OCI-Ly10", "experiment": "Growth inhibition of human OCILY10 cells at 0.17 uM incubated for 3 days (Rvb= -2%)", "assay_type": "functional", "conditions": "OCI-Ly10, 72 h, time 3 day, read-out: GI"}, "OCI-Ly10 [23]": {"system": "OCI-Ly10", "experiment": "Growth inhibition of human OCILY10 cells at 3.3 uM incubated for 3 days (reference value: -2%)", "assay_type": "functional", "conditions": "OCI-Ly10, 72 h, time 3 day, read-out: GI"}, "[24]": {"experiment": "Oral bioavailability in rat at 1 mg/kg", "assay_type": "ADME, organism-based", "conditions": "in vivo"}, "SUD4 [25]": {"system": "SUD4", "experiment": "Growth inhibition of human SU-DHL-4 cells at 0.33 uM incubated for 3 days (reference value: 2%)", "assay_type": "functional", "conditions": "SU-DHL-4, 72 h, time 3 day, read-out: GI"}, "[26]": {"experiment": "Oral bioavailability in mouse at 1 mg/kg", "assay_type": "ADME, organism-based", "conditions": "in vivo"}, "SUD4 [27]": {"system": "SUD4", "experiment": "Growth inhibition of human SU-DHL-4 cells at 3.3 uM incubated for 3 days (reference value: 2%)", "assay_type": "functional", "conditions": "SU-DHL-4, 72 h, time 3 day, read-out: GI"}, "SUD4 [28]": {"system": "SUD4", "experiment": "Growth inhibition of human SU-DHL-4 cells at 0.17 uM incubated for 3 days (reference value: 2%)", "assay_type": "functional", "conditions": "SU-DHL-4, 72 h, time 3 day, read-out: GI"}, "SUD4 [29]": {"system": "SUD4", "experiment": "Growth inhibition of human SU-DHL-4 cells at 10 uM incubated for 3 days (reference value: 2%)", "assay_type": "functional", "conditions": "SU-DHL-4, 72 h, time 3 day, read-out: GI"}, "SUD4 [30]": {"system": "SUD4", "experiment": "Growth inhibition of human SU-DHL-4 cells at 1.7 uM incubated for 3 days (reference value: 2%)", "assay_type": "functional", "conditions": "SU-DHL-4, 72 h, time 3 day, read-out: GI"}}}
{"compound": "Cc1ncc(-c2nc3c(OC4(C)CC4)nc(Nc4cnn(C5CCN(C)CC5)c4)nc3cc2F)cn1", "values": [{"measurement": "fraction unbound", "setting": "[1]", "result": 0.16}, {"measurement": "fraction unbound", "setting": "[2]", "result": 0.33}, {"measurement": "inhibition", "setting": "[3]", "result": 61, "unit": "%"}, {"measurement": "microsomal CLint", "setting": "[4]", "result": 21, "unit": "µL/min/mg"}, {"measurement": "hepatocyte CLint", "setting": "[5]", "result": 11, "unit": "µL/min/1e6 cells"}, {"measurement": "bioavailability", "setting": "[6]", "result": 55, "unit": "%"}, {"measurement": "fraction unbound", "setting": "[7]", "result": 0.21}, {"measurement": "hepatocyte CLint", "setting": "[8]", "result": 8.2, "unit": "µL/min/1e6 cells"}, {"measurement": "microsomal CLint", "setting": "[9]", "result": 18, "unit": "µL/min/mg"}, {"measurement": "half-life", "setting": "[10]", "result": 1.4, "unit": "h"}, {"measurement": "half-life", "setting": "[11]", "result": 3, "unit": "h"}, {"measurement": "Vd", "setting": "[12]", "result": 8.6, "unit": "L/kg"}, {"measurement": "Vdss", "setting": "[13]", "result": 4.1, "unit": "L/kg"}, {"measurement": "clearance", "setting": "[14]", "result": 68, "unit": "mL/min/kg"}, {"measurement": "microsomal CLint", "setting": "[15]", "result": 13, "unit": "µL/min/mg"}, {"measurement": "hepatocyte CLint", "setting": "[16]", "result": 5.6, "unit": "µL/min/1e6 cells"}, {"measurement": "microsomal CLint", "setting": "[17]", "result": 35, "unit": "µL/min/mg"}, {"measurement": "bioavailability", "setting": "[18]", "result": 66, "unit": "%"}, {"measurement": "inhibition", "setting": "[19]", "result": 102, "unit": "%"}, {"measurement": "Vdss", "setting": "[20]", "result": 4.3, "unit": "L/kg"}, {"measurement": "hepatocyte CLint", "setting": "[21]", "result": 4.7, "unit": "µL/min/1e6 cells"}]}
{"compound": "CC[C@@H]1[C@H](F)C(=O)N[C@@H]1COc1nccc2cc(C(N)=O)c(OC)cc12", "note": "[ZIMLOVISERTIB]", "values": [{"measurement": "inhibition of growth at 0.17 µM", "setting": "OCI-Ly10 [22]", "result": 5, "unit": "%"}, {"measurement": "inhibition of growth at 3.3 µM", "setting": "OCI-Ly10 [23]", "result": 20, "unit": "%"}]}
{"compound": "Cc1ncc(-c2nc3c(NC(C)C)nc(Nc4cnn(C5CC6(C5)CN(C)C6)c4)nc3cc2F)cn1", "values": [{"measurement": "bioavailability", "setting": "[24]", "result": "≤ 10", "unit": "%"}, {"measurement": "inhibition of growth at 0.33 µM", "setting": "SUD4 [25]", "result": 3, "unit": "%"}, {"measurement": "bioavailability", "setting": "[26]", "result": "≤ 10", "unit": "%"}, {"measurement": "inhibition of growth at 3.3 µM", "setting": "SUD4 [27]", "result": 4, "unit": "%"}, {"measurement": "inhibition of growth at 0.17 µM", "setting": "SUD4 [28]", "result": 2, "unit": "%"}, {"measurement": "inhibition of growth at 10 µM", "setting": "SUD4 [29]", "result": 6, "unit": "%"}, {"measurement": "inhibition of growth at 1.7 µM", "setting": "SUD4 [30]", "result": 3, "unit": "%"}]}
